Measured values from US20230123334A1, “AMINO LIPID COMPOUND, PREPARATION METHOD THEREFOR, AND APPLICATION THEREOF” (SHENZHEN SHENXIN BIOTECHNOLOGY CO., LTD., priority 2020, published 2023).

System: HEK293 cells
Test: Preliminary screening as DNA vectors, GFP transfection of HEK293 cells
Type: cell-based
Details: amino lipid/DOPE liposome with 75 ng plasmid DNA (psin-EGFP-IRES-Puro); number of GFP-expressing cells divided by total nuclei (Hoechst)
Description: Cell line: HEK293 cells (ATCC CRL-1573™)
Medium: DMEM supplemented with 10% fetal bovine serum (Invitrogen)
Mode of screening: cell transfection on 96-well plates
Detection (readout): percentage of the number of GFP fluorescent cells relative to the total number of cells (the total number of cells was measured using nucleus dye Hoechst—see FIG. 2). Lipofectamine2000 (Invitrogen) was used as positive control, according to the manufacturer's instructions.
Method: an 8-channel pipette was used for sample addition. The contents shown were for a single well of a 96-well flat plate.
1. The compound (0.01 mmol) prepared in Example 1 was dissolved in 1 mL of anhydrous ethanol. After ultrasonically dissolved, 10 μL of the resultant amino lipid solution in ethanol was taken and mixed with 5 μL of DOPE solution in ethanol (0.01 m), and then to the obtained mixture was added 35 μL of 0.2M sodium acetate buffer (pH 5.6), and 50 μL of liposome solution was prepared by vortex at a constant rotating speed for 30 s. 4 μL was taken from the 50 μL liposome solution and added to 46 μL of 0.02M sodium acetate buffer (pH 5.6), and the final liposome solution was formed by vortex at a constant rotating speed for 30 s. 5 μL was taken from the final liposome solution and mixed with 75 ng plasmid DNA (psin-EGFP-IRES-Puro, Clontech) dissolved in 5 μL of 0.02 M sodium acetate buffer, and was allowed to stay at room temperature for 30 min to form a lipid/DNA transfection complex.
2. 10 μL of the lipid/DNA transfection complex was incubated at room temperature for 30 min, followed by addition of 90 μL of fresh resuspended cells (3-5×10^4 cells) and mixing with a pipette. 100 μL of cells+lipid/DNA complex was transferred to separate wells of a 96-well culture plate immediately, and placed in an incubator containing 5% CO2 at 37° C.
3. Hoechst33258 (Invitrogen) was added at a final concentration of 0.2 μg/mL to the cells 20 to 24 hours after initial cell transfection, and cultured in darkness at 37° C. for 15 min. Afterwards, the cells were washed once with a PBS solution, and then added with medium for culture for 20 to 24 h.
4. The cells were placed in a high-throughput confocal microscope (Molecular Devices ImageXpress), and four visual fields of the image of the cells were captured for each well, and images at three laser wavelengths were captured for each sample: bright field images of cells (FIG. 2(a) and FIG. 2(b)), Hoechst-staining images showing total nuclei (FIG. 2(c) and FIG. 2(d)) and GFP images showing success in transfection with the plasmid DNA and the expression of GFP (FIG. 2(e) and FIG. 2(f)). MetaXpress software was used to separately count the cells in the Hoechst-staining images and GFP images, and then the number of cells expressing GFP was divided by the total number of nuclei to give the absolute cell transfection efficiency. The absolute transfection efficiency was calculated as follows: […]

CCCCCCCCCCCCCNc1nc(NCCN(CC)CC)nc(SCCCCCCCC)n1 [S8N13 D7] was tested, and the “Absolute DNA transfection efficiency in HEK293 cells” value (“Absolute DNA transfection efficiency” below) was 8.9%.
In the case of CCCCCCCCCCCNc1nc(NCCN2CCN(C)CC2)nc(SCCCCCC)n1 [S6N11 D5], the “Absolute DNA transfection efficiency” value is reported as 17.5%.
In the case of CCCCCCCCCCCCCNc1nc(NCCN2CCCCC2)nc(SCCCCCCCC)n1 [S8N13 D4], the “Absolute DNA transfection efficiency” value is reported as 3.8%.
With CCCCCCCCCCCCN(CCCCCCCCCCCC)c1nc(NCCN2CCCCC2)nc(SCCCCCCCCC)n1 [S9^2N12 D4] the “Absolute DNA transfection efficiency” value was 0.0%.
For CCCCCCCCCCCCNc1nc(NCCN(CC)CC)nc(SCCCCCCCCC)n1 [S9N12 D7], the “Absolute DNA transfection efficiency” value was 12.4%.
In the case of CCCCCCCCCCCCCCCSc1nc(NCCCCCCCC)nc(NCCCN2CCOCC2)n1 [S15N8 D8], the “Absolute DNA transfection efficiency” value is reported as 7.9%.
With CCCCCCCCCCCSc1nc(NCCCCCC)nc(NCC2CCN(C)CC2)n1 [S11N6 D10] the “Absolute DNA transfection efficiency” value was 8.8%.
In the case of CCCCCCCCCCSc1nc(NCCCCCCCCC)nc(NCCCN(C)C)n1 [S10N9 D6], the “Absolute DNA transfection efficiency” value is reported as 21.0%.
In the case of CCCCCCCCCCCNc1nc(NCCN2CCN(C)CC2)nc(SCCCCCCC)n1 [S7N11 D5], the “Absolute DNA transfection efficiency” value is reported as 43.7%.
With CCCCCCCCCCCCCCCCCCNc1nc(NCCCN2CCN(C)CC2)nc(SCCCCCCCCCCCCCCCCCC)n1 [S18N18 D9] the “Absolute DNA transfection efficiency” value was 0.0%.
CCCCCCCCCCCCCCCSc1nc(NCCN2CCCC2)nc(SCCCCCC)n1 [S6S15 D3] was tested, and the “Absolute DNA transfection efficiency” value was 14.5%.
With CCCCCCCCCCCSc1nc(NCCCCCCC)nc(NCCCN2CCOCC2)n1 [S11N7 D8] the “Absolute DNA transfection efficiency” value was 13.4%.
With CCCCCCCCCSc1nc(NCCN2CCOCC2)nc(SCCCCCC)n1 [S6S9 D2] the “Absolute DNA transfection efficiency” value was 9.1%.
In the case of CCCCCCCCCCCCCCCSc1nc(NCCCCCCCCCCCCC)nc(NCC2CCN(C)CC2)n1 [S15N13 D10], the “Absolute DNA transfection efficiency” value is reported as 0.0%.
CCCCCCCCCNc1nc(NCCCN2CCN(C)CC2)nc(SCCCCCCCC)n1 [S8N9 D9] was tested, and the “Absolute DNA transfection efficiency” value was 32.1%.
For CCCCCCCCCCCSc1nc(NCC2CCN(C)CC2)nc(SCCCCCCC)n1 [S7S11 D10], the “Absolute DNA transfection efficiency” value was 39.1%.
For CCCCCCCCCCCSc1nc(NCCCN2CCN(C)CC2)nc(SCCCCCCCC)n1 [S8S11 D9], the “Absolute DNA transfection efficiency” value was 12.8%.
CCCCCCCCCCCCCCCCNc1nc(NCCN2CCN(C)CC2)nc(SCCCCCCCC)n1 [S8N16 D5] was tested, and the “Absolute DNA transfection efficiency” value was 14.3%.
With CCCCCCCCCCCCCCCCCCNc1nc(NCCN2CCN(C)CC2)nc(SCCCCCCCCCCCCCCC)n1 [S15N18 D5] the “Absolute DNA transfection efficiency” value was 0.3%.
In the case of CCCCCCCCCCCCCCCNc1nc(NCCCN2CCN(C)CC2)nc(SCCCCCCCCCCC)n1 [S11N15 D9], the “Absolute DNA transfection efficiency” value is reported as 7.0%.
With CCCCCCCCCCCCN(CCCCCCCCCCCC)c1nc(NCCN2CCOCC2)nc(SCCCCCCCCCC)n1 [S10^2N12 D2] the “Absolute DNA transfection efficiency” value was 0.0%.
In the case of CCCCCCCCCCCCCNc1nc(NCCCN2CCN(C)CC2)nc(SCCCCCCCC)n1 [S8N13 D9], the “Absolute DNA transfection efficiency” value is reported as 27.9%.
In the case of CCCCCCCCCCCCCNc1nc(NCCN(CC)CC)nc(SCCCCCCCCC)n1 [S9N13 D7], the “Absolute DNA transfection efficiency” value is reported as 6.5%.
For CCCCCCCCCCCCCCCCNc1nc(NCC2CCN(C)CC2)nc(SCCCCCCCCC)n1 [S9N16 D10], the “Absolute DNA transfection efficiency” value was 21.8%.
In the case of CCCCCCCCCCCCCCCCNc1nc(NCCN(C)C)nc(SCCCCCCCCCCCCCC)n1 [S14N16 D1], the “Absolute DNA transfection efficiency” value is reported as 0.7%.
CCCCCCCCCCCCNc1nc(NCCN(C)C)nc(SCCCCCC)n1 [S6N12 D1] was tested, and the “Absolute DNA transfection efficiency” value was 4.7%.
In the case of CCCCCCCCCCCCSc1nc(NCCCCCCC)nc(NCCCN(C)C)n1 [S12N7 D6], the “Absolute DNA transfection efficiency” value is reported as 11.2%.
With CCCCCCCSc1nc(NCC2CCN(C)CC2)nc(SCCCCCC)n1 [S6S7 D10] the “Absolute DNA transfection efficiency” value was 21.6%.
With CCCCCCCCCCCNc1nc(NCCCN2CCN(C)CC2)nc(SCCCCCCCCCCC)n1 [S11N11 D9] the “Absolute DNA transfection efficiency” value was 4.9%.
With CCCCCCCCCCCCCCCCSc1nc(NCCCCCC)nc(NCCCN(C)C)n1 [S16N6 D6] the “Absolute DNA transfection efficiency” value was 24.1%.
With CCCCCCCSc1nc(NCCCN2CCOCC2)nc(SCCCCCCC)n1 [S7S7 D8] the “Absolute DNA transfection efficiency” value was 0.6%.
For CCCCCCCCCCCCNc1nc(NCCN2CCN(C)CC2)nc(SCCCCCCCCCCC)n1 [S11N12 D5], the “Absolute DNA transfection efficiency” value was 14.1%.
For CCCCCCCCNc1nc(NCCN2CCN(C)CC2)nc(SCCCCCC)n1 [S6N8 D5], the “Absolute DNA transfection efficiency” value was 3.4%.
With CCCCCCCCCCCCCCSc1nc(NCCCCCCCCC)nc(NCCN(CC)CC)n1 [S14N9 D7] the “Absolute DNA transfection efficiency” value was 10.6%.
For CCCCCCCCCNc1nc(NCC2CCN(C)CC2)nc(SCCCCCCCCC)n1 [S9N9 D10], the “Absolute DNA transfection efficiency” value was 34.5%.
With CCCCCCCCCCCCSc1nc(NCCCCCCCCC)nc(NCC2CCN(C)CC2)n1 [S12N9 D10] the “Absolute DNA transfection efficiency” value was 11.3%.
In the case of CCCCCCCCCNc1nc(NCCCN(C)C)nc(SCCCCCCC)n1 [S7N9 D6], the “Absolute DNA transfection efficiency” value is reported as 25.9%.
For CCCCCCCCCCCCCCCCCCNc1nc(NCCCN(C)C)nc(SCCCCCCCCCCCCCCCC)n1 [S16N18 D6], the “Absolute DNA transfection efficiency” value was 0.0%.
In the case of CCCCCCCCCCSc1nc(NCCCCCC)nc(NCCN2CCCC2)n1 [S10N6 D3], the “Absolute DNA transfection efficiency” value is reported as 7.3%.
With CCCCCCCCCCCCCCCCSc1nc(NCCCCCC)nc(NCCN2CCOCC2)n1 [S16N6 D2] the “Absolute DNA transfection efficiency” value was 16.5%.
In the case of CCCCCCCNc1nc(NCC2CCN(C)CC2)nc(SCCCCCC)n1 [S6N7 D10], the “Absolute DNA transfection efficiency” value is reported as 2.9%.
In the case of CCCCCCCCCCSc1nc(NCCCCCC)nc(NCCCN2CCOCC2)n1 [S10N6 D8], the “Absolute DNA transfection efficiency” value is reported as 0.6%.
With CCCCCCCCNc1nc(NCC2CCN(C)CC2)nc(SCCCCCCC)n1 [S7N8 D10] the “Absolute DNA transfection efficiency” value was 9.5%.
With CCCCCCCCCCCCCCCSc1nc(NCCN2CCOCC2)nc(SCCCCCC)n1 [S6S15 D2] the “Absolute DNA transfection efficiency” value was 8.4%.
With CCCCCCCCCCCCCCSc1nc(NCCN2CCN(C)CC2)nc(N(CCCCCCCCCCCC)CCCCCCCCCCCC)n1 [S14^2N12 D5] the “Absolute DNA transfection efficiency” value was 0.0%.
CCCCCCCCCNc1nc(NCCN(C)C)nc(SCCCCCCCC)n1 [S8N9 D1] was tested, and the “Absolute DNA transfection efficiency” value was 33.6%.
In the case of CCCCCCCCCCCCN(CCCCCCCCCCCC)c1nc(NCCCN2CCN(C)CC2)nc(SCCCCCCCC)n1 [S8^2N12 D9], the “Absolute DNA transfection efficiency” value is reported as 0.7%.
With CCCCCCCCCCCCCCCCCCNc1nc(NCCN2CCN(C)CC2)nc(SCCCCCC)n1 [S6N18 D5] the “Absolute DNA transfection efficiency” value was 15.4%.
CCCCCCCCSc1nc(NCCN2CCCCC2)nc(SCCCCCCCC)n1 [S8S8 D4] was tested, and the “Absolute DNA transfection efficiency” value was 11.2%.
With CCCCCCCCCCCCCCCCSc1nc(NCCCCCCCCCCCC)nc(NCC2CCN(C)CC2)n1 [S16N12 D10] the “Absolute DNA transfection efficiency” value was 2.1%.
In the case of CCCCCCCCCCCCCCCSc1nc(NCCCCCCC)nc(NCCCN2CCOCC2)n1 [S15N7 D8], the “Absolute DNA transfection efficiency” value is reported as 14.5%.
With CCCCCCCCCCCCNc1nc(NCCN2CCCCC2)nc(SCCCCCCCCCCCC)n1 [S12N12 D4] the “Absolute DNA transfection efficiency” value was 0.1%.
For CCCCCCCCCCCCCCSc1nc(NCCCCCCCCC)nc(NCCCN(C)C)n1 [S14N9 D6], the “Absolute DNA transfection efficiency” value was 43.9%.
CCCCCCCCCSc1nc(NCCN(CC)CC)nc(SCCCCCC)n1 [S6S9 D7] was tested, and the “Absolute DNA transfection efficiency” value was 10.2%.
For CCCCCCCCCCCCCCCCCCNc1nc(NCCN2CCCCC2)nc(SCCCCCCCCCCCCCCC)n1 [S15N18 D4], the “Absolute DNA transfection efficiency” value was 0.4%.
In the case of CCCCCCCCCCCCCCCCSc1nc(NCC2CCN(C)CC2)nc(SCCCCCC)n1 [S6S16 D10], the “Absolute DNA transfection efficiency” value is reported as 37.6%.
With CCCCCCCCCCCSc1nc(NCCCN2CCOCC2)nc(SCCCCCCCC)n1 [S8S11 D8] the “Absolute DNA transfection efficiency” value was 15.3%.
For CCCCCCCNc1nc(NCCCN2CCN(C)CC2)nc(SCCCCCC)n1 [S6N7 D9], the “Absolute DNA transfection efficiency” value was 0.2%.
In the case of CCCCCCCCSc1nc(NCCCCCC)nc(NCCN2CCCCC2)n1 [S8N6 D4], the “Absolute DNA transfection efficiency” value is reported as 2.6%.
With CCCCCCCCCCCCCCCSc1nc(NCCN2CCCCC2)nc(SCCCCCC)n1 [S6S15 D4] the “Absolute DNA transfection efficiency” value was 7.9%.
